Patent publication US20070021485A1, “Aryl (or heteroaryl) azolylcarbinols” (priority 2005, published 2007)
pKi: −log10 of the molar value. Read-outs that look alike come from different tables or passages of the source.

What was measured:
[1] = test system: aversive situation-induced immobility; assay: Inhibition of immobility induced by an aversive situation (tail suspension) in mice; assay type: in vivo; conditions: Mus musculus, ip, read-out: Immobility test Tail hanging In mice ED50
Description: The test was described by R. D. Porsolt et al. (Arch.int.Pharmacodyn. 1987, 288: 11-30). Following suchg method, the compound to be studied was administered by ip route, and 30 minutes later mice were submitted to an aversive situation: they were tail suspended in the […] for 6 minutes. Mobility time and movements power were authomatically measured and registered in the above mentioned device. The potential antidepressant reduce the mice immobility time.

[2] = test system: immobility in forced swimming; assay: Water despair test (forced swimming) in rats; assay type: in vivo; conditions: for Swimming Test Forced swimming In rats, activity at single dose: 40 mg/Kg; for ED50: read-out: Swimming Test Forced swimming In rats ED50
Description: The test was described by R. D. Porsolt et al. (Europ.J.Pharmacol. 1978, 47:379-391). […] The following day, 24 hours later, were let to swim in the water, but only for 5 minutes, and it was […] immobility time. The compounds to be studied were administered by ip route, 60 minutes before the test. The antidepressants reduce the immobility time. […] (Tablel).

[3] = test system: reserpine-induced ptosis; assay: Inhibition of reserpine-induced ptosis in mice; assay type: in vivo; conditions: for ED50: Mus musculus, read-out: Inhibition test Reserpin ptosis In mice ED50
Description: It has been used the test described by S.Garattini et al. (Med.Exp. 1960, 3: 315-320). The antidepressant drugs inhibit the parpebral ptosis induced by reserpine ([…], i.p.) in mice.

[4] = test system: urinary incontinence secondary to overactive bladder or idiopathic urge incontinence; assay: Clinical Study A, placebo controlled, 50 mg twice a day; assay type: in vivo, human; conditions: patients
Description: (§1) In a placebo controlled clinical trial 79 patients are randomized. Patients are from both genders with ages between 18 and 80 years (inclusive). They have urinary incontinence secondary to overactive bladder (detrusor hyperreflexia or instability) or idiopathic urge incontinence confirmed by the medical history and urodynamic study.
One group of patients is treated with 2-((1-methyl-1H-pyrazol-5-yl)(phenyl)methoxy-N-methylethanamine, 50 mg, twice a day, formulated as a tablet for oral administration. Another group is treated with placebo in matching tablets, twice a day, with administration by oral route. The patients are treated for 84 days.
Efficacy is measured by the difference from baseline in the mean number of leakages, micturitions, urgencies and voidings/24 hours as provided by a 7-day frequency-volume chart in the end of the study visit.
(§2) The primary efficacy analysis is based on the PP population. The treatment groups are compared with respect to the treatment effect, defined as the difference between treatment groups for changes from baseline in the number of voidings per 24 hours.
Additionally, the percentage of responders is compared based on an analysis of the number of patients having <8 voidings/day or experiencing complete dryness or both, and statistical significance determined.

[5] = test system: rat urinary bladder; assay: Urodynamic parameters (cystometry) in the anesthetized rat; assay type: in vivo; conditions: for mean volume of micturition / number of micturitions / volume for the first micturition: anesthetized rat, iv, duloxetine 1 mg/kg, cizolirtine 10 mg/kg, N-desmethyl metabolite 10 mg/kg, vs control vehicle, FIG. 3
Description: Rat urinary bladder was catheterized. A pressure transducer was used to measure intavesical pressure in anesthetized rats treated with 1 mg/kg duloxetine, 10 mg/kg cizolirtine, 10 mg/kg N-desmethyl metabolite or a control vehicle. Recordings were made of the infusion volume, pressure needed for micturition, number of micturitions during the infusion.
An infusion pump was used to fill bladder with saline until micturition. After stabilization, treatment compounds or control vehicle were administered by iv. Fifteen minutes after administration, saline infusion was started and urodynamic parameters were again analyzed. The number of micturitions, volume for first micturition, mean volume for micturition, and AUC of intravesical pressure were measured for each of the treatment groups and compared to the control.
(§3) This is performed on Sprague-Dawley male and female anaesthetized rats. Left carotid artery is inserted with a catheter for the continuous measure of systemic arterial pressure and cardiac frequency. After an incision to the abdomen, a catheter is inserted on the bladder and connected to a pressure transducer and to an infusion pump. The urethra is ligated and the bladder is voided. After stabilization period, saline solution is infused (0.9 % NaC1solution at 5 ml/h rate) and the basal parameters of intravesical pressure are measured for 20 min. Cystometry parameters are the infusion volume and pressure needed to activate the micturition reflex, and the micturition frequency. After stabilization period, the compounds are administered i.v. and, 15 min. later, saline is infused and urodynamic parameters are measured again to compare with basal.

[6] = test system: rat bladder contractions; assay: Isovolumetric rhythmic bladder contractions in the anesthetized rat: amplitude and rate of the contractions; assay type: in vivo; conditions: for amplitude of the bladder contractions / rate of the bladder contractions: anesthetized rat, iv, 6.83, 13.7 and 27.3 mg/kg given as citrate, FIG. 2
Description: (1) Isovolumetric Rhythmic Bladder Contractions in the Anesthetized Rat
(a) Amplitude and Rate of the Contractions
Rat urinary bladder catheterized:
A pressure transducer is used to measure intravesical pressure (recording rate and amplitude of bladder contractions).
An infusion pump is used to fill bladder by 0.1 ml increments of saline until rhythmic contractions. After 15 minutes of constant interval bladder contractions, (R)-(+)-2-((1-methyl-1H-pyrazol-5-yl)(phenyl)methoxy-N-methylethanamine citrate in 6.83, 13.7, and 27.3 mg/kg dosages; (S)-(−)-2-((1-methyl-1H-pyrazol-5-yl)(phenyl)methoxy-N-methylethanamine citrate in 6.83, 13.7 and 27.3 mg/kg dosages; and oxybutinyn in a 1 mg/kg dose were administered by iv. Measurements were made before and then during 15 minute intervals after each administration.
Aditionally the compound 1, accoridng example 1, and its enantiomers were active in rat urinary incontinence test. They inhibited the amplitude of the rat bladder contractions. The compounds were evaluated in a model of cystometry in the anesthesized rat, looking for the effects on isovolumetric rhythmic bladder contractions. The method, which evaluatesthe effects of the test substances on lower urinary tract function, followed that described by Y. Kimura et al. ( Int. J. Urol. 1996, 3: 218-227).

[7] = target: T1, serotonin transporter (Rattus norvegicus, UniProt P31652); assay: Serotonin transporter affinity, (3H)paroxetine binding in rat brain cortex; conditions: (3H)paroxetine radioligand, serotonin 100 μM non specific
T1 construct: from tissue; host or cells: rat brain cortex
T1 sequence (P31652 whole entry): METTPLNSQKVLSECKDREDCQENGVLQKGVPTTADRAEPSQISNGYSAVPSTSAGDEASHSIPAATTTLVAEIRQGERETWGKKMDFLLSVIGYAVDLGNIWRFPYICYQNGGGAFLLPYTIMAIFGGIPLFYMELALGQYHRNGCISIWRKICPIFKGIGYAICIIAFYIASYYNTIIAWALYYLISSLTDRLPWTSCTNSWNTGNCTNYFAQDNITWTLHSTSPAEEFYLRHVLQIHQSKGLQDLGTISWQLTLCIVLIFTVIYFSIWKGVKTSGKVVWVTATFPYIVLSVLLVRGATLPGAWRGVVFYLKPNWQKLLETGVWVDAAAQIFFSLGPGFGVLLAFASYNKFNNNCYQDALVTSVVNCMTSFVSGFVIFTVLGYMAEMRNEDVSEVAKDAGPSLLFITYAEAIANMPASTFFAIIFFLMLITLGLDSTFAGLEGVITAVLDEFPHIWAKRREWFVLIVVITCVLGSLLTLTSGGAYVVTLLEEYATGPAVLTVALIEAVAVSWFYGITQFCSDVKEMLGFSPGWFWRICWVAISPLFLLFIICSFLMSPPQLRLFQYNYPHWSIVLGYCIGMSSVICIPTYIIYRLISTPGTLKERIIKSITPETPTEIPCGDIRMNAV
Description: This affinity was studied in rat brain cortex, using (3H)paroxetine ([…]) as radioligand and 5-Hydroxytriptamine (serotonin)(100 μM) as non specific ligand.

[8] = test system: acetic acid-induced bladder hyperactivity; assay: Protection against acetic acid-induced bladder hyperactivity in the anesthetized rat; assay type: in vivo; conditions: for protection of the rat bladder against the acetic acid-induced hyperactivity: cizolirtine 5, 10 mg/kg i.v.; for protection of the rat bladder against the acetic acid-induced hyperactivity / number of micturitions / volume for the first micturition: duloxetine 1 mg/kg; for number of micturitions / volume for the first micturition: cizolirtine 5 and 10 mg/kg, vs control, FIG. 4
Description: (a) Protection Against Acetic Acid-induced Hyperactivity: Urodynamic Parameters
Anesthetized rat bladders were treated with […], […] and 1 mg/kg duloxetine, […] and 5 mg/kg cizolirtine, […] and 10 mg/kg cizolirtine, or […] and 10 mg/kg N-desmethyl metabolite. The number of micturitions, the volume for first micturition, micturition volume, intravesical pressure increase, and AUC of intravesical pressure were measured for each of the treatment groups and the control.
as §3
Further the effect on acetic acid-induced bladder hiperactivity is tested.

[9] = test system: urinary incontinence secondary to overactive bladder or idiopathic urge incontinence; assay: Clinical Study B, placebo controlled, 100 mg twice daily; assay type: in vivo, human; conditions: patients, 100 mg by oral route twice daily, 84 days
Description: as §1, with “135” for “79”
One group of patients is treated with 2-((1-methyl-1H-pyrazol-5-yl)(phenyl)methoxy-N-methylethanamine 100 mg formulated as an oral administration (twice daily). Another group is treated with placebo matching capsules, […], with administration by oral route. The patients are treated for 84 days.
Efficacy is measured by the difference from baseline in the mean number of voidings/24 hours as provided by a 7-day frequency-volume chart in the end of study visit.
as §2
Additionally, the percentage of responders is compared based on analysis of the number of patients having <8 voidings per day or experienced complete dryness or both., and statistical significance determined.

[10] = mice, i.p., 30 minutes before tail suspension for 6 minutes
[11] = 50 mg twice a day oral, 84 days, compared with placebo
[12] = N-desmethyl metabolite 10 mg/kg
[13] = acetic acid-treated rat bladder, N-desmethyl metabolite 10 mg/kg
[14] = anaesthetized Sprague-Dawley rats, 10 mg/kg i.v., vs basal
[15] = acetic acid 0.3% v/v infusion, 10 mg/kg i.v.
[16] = acetic acid 0.3% v/v infusion, 10 mg/kg i.v. acute

## CNCCOC(c1cccs1)c1ccnn1C.O=C(O)C(=O)O (centres unmarked) [Compound 2, 2-((1-methyl-1H-pyrazol-5-yl)(thiophen-2-yl)methoxy)-N-methylethanamine; oxalate]
[1]; [10]
  ED50: 33 mg/kg
[2]; rats, i.p.
  Swimming Test Forced swimming In rats, activity at single dose: inactive
[3]; mice, p.o., 40 mg/Kg
  Inhibition test Reserpin ptosis In mice, activity at single dose: inactive

## CNCCCN1c2ccccc2CCc2ccccc21 [Desipramine]
[2]; Rattus norvegicus, ip, rats, i.p., 30 mg/Kg, read-out: Swimming Test Forced swimming In rats, I (inhibition) at single dose
  inhibition at 30 mg/kg: 32%

## CNCCOC(c1ccccc1)c1ccnn1C (centres unmarked) [Compound 1, 2-((1-methyl-1H-pyrazol-5-yl)(phenyl)methoxy)-N-methylethanamine]
[4]; 50 mg twice a day by oral route, compared to placebo
  urge incontinence caused by overactive bladder, majority of efficacy variables: clinically significant improvements
[4]; [11]
  mean number of daily leakages: significant reduction
  mean number of daily micturitions: significant reduction
  mean number of daily urgencies: significant reduction
  mean number of daily voidings: significant reduction
[5]
  mean volume of micturition: increased
  number of micturitions: decreased
  volume for the first micturition: increased
[6]; cystometry in the anesthesized rat, method of Kimura et al.
  amplitude of the rat bladder contractions, rat urinary incontinence test: inhibited
[7]
  pKi: 6.94
[8]; [12]
  protection of the rat bladder against the acetic acid-induced hyperactivity: protected
[8]; acetic acid-treated rat bladder, N-desmethyl metabolite 10 mg/kg, FIG. 5
  number of micturitions (sentence on FIG. 5): increased
[8]; [13]
  number of micturitions: reduced
  volume for the first micturition: increased
[1]
  ED50: 17 mg/kg
[2]; Rattus norvegicus, ip
  ED50: 33 mg/kg
[3]
  ED50: 14 mg/kg
[9]
  bladder overactivity: improve bladder overactivity

## CN(C)CCOC(c1ccccc1)c1ccnn1C (centres unmarked) [Cizolirtine]
[5]; [14]
  bladder contractility: no alteration
  bladder pressure: significantly reduced
  mean micturition volume: significantly increased
  micturition frequency: trends to decrease
  volume required for first micturition: augment
[5]
  mean volume of micturition: increased
  number of micturitions: decreased
  volume for the first micturition: increased
[8]; [12]
  protection of the rat bladder against the acetic acid-induced hyperactivity: protected
[8]; [15]
  acetic acid-caused increase of bladder pressure: reversed
  contractile capacity of the bladder: Neither acetic acid nor cizolirtine significantly affected
[8]; [16]
  acetic acid-caused increase of micturition frequency: significantly reduced
  acetic acid-caused reduction of micturition volume: significantly reduced
[8]; [13]
  number of micturitions: reduced
  volume for the first micturition: increased
[1]; [10]
  ED50: 17 mg/kg
[2]; rats, i.p.
  Swimming Test Forced swimming In rats, activity at single dose: inactive
[3]; mice, p.o., reserpine i.p.
  ED50: 26 mg/kg

## CNCCO[C@@H](c1ccccc1)c1ccnn1C [2-((S)-(1-methyl-1H-pyrazol-5-yl)(phenyl)methoxy)-N-methylethanamine]
[6]
  amplitude of the bladder contractions: inhibited
  rate of the bladder contractions: without modifying the rate

## CNCC[C@H](Oc1cccc2ccccc12)c1cccs1 [duloxetine]
[5]
  mean volume of micturition: increased
  number of micturitions: decreased
  volume for the first micturition: increased
[8]; [12]
  protection of the rat bladder against the acetic acid-induced hyperactivity: protected
[8]; [13]
  number of micturitions: reduced
  volume for the first micturition: increased

## CN[C@H]1CC[C@@H](c2ccc(Cl)c(Cl)c2)c2ccccc21 [Sertraline]
[1]; [10]
  ED50: 8 mg/kg
[2]; Rattus norvegicus, ip, rats, i.p., 60 minutes before the test
  ED50: 28 mg/kg
[3]; mice, p.o., reserpine i.p.
  ED50: 17 mg/kg

## CNCCO[C@H](c1ccccc1)c1ccnn1C [(R)-2-((1-methyl-1H-pyrazol-5-yl)(phenyl)methoxy)-N-methylethanamine]
[6]
  amplitude of the bladder contractions: inhibited
  rate of the bladder contractions: without modifying the rate
